Results reported in US9000008B2, “Amides of acetic and propionic acids” (Bayer Intellectual Property GmbH, priority 2002, dated 2015).
pKi: −log10 of the molar value. Counter-ions that a name gives are not always drawn.

Target: α7 nAChR (Rattus norvegicus (Rat), UniProt Q05941)
Experiment: [3H]-methyllycaconitine binding assay, rat brain membranes
Details: inhibition of [3H]-methyllycaconitine binding to rat brain membranes; Ki=IC50/(1+L/KD)
Experimental: 1. Determination of the Affinity of Test Substances for α7 nAChR by Inhibition of [^3H]-Methyllycaconitine Binding to Rat Brain Membranes
The [^3H]-methyllycaconitine binding assay is a modification of the method described by Davies et al. (Neuropharmacol. 1999, 38, 679-690).
Rat brain tissue (hippocampus or whole brain) is homogenized in homogenization buffer (10% w/v). [0.32 M sucrose, 1 mM EDTA; 0.1 mM phenylmethylsulfonyl fluoride (PMSF), 0.01% (w/v) NaN3, pH 7.4, 4° C.] at 600 rpm in a glass homogenizer. The homogenate is centrifuged (1000×g, 4° C., 10 min) and the supernatant is removed. The pellet is resuspended (20% w/v) and the suspension is centrifuged (1000×g, 4° C., […]). The two supernatants are combined and centrifuged (15 000×g, 4° C., 30 min). The pellet obtained in this way is referred to as the P2 fraction.
The P2 pellet is washed twice with binding buffer (50 mM Tris-HCl, 1 mM MgCl2, 120 mM NaCl, 5 mM KCl, 2 mM CaCl2, pH 7.4), and centrifuged (15 000×g, 4° C., 30 min).
The P2 membranes are resuspended in binding buffer and incubated in a volume of 250 μl (amount of membrane protein 0.1-0.5 mg) in the presence of 1-5 nM [^3H]methyllycaconitine, 0.1% (w/v) BSA (bovine serum albumin) and various concentrations of the test substance at 21° C. for 2.5 h. The non-specific binding is determined by incubation in the presence of 1 μM α-bungarotoxin or 100 μM nicotine or 10 μM MLA (methyllycaconitine).
The incubation is stopped by adding 4 ml of PBS (20 mM Na2HPO4, 5 mM KH2PO4, 150 mM NaCl, pH 7.4, 4° C.) and filtering through type A/E glass fiber filters (Gelman Sciences) which have previously been placed in 0.3%. (v/v) polyethyleneimine (PEI) for 3 h. The filters are washed twice with 4 ml of PBS (4° C.), and the bound radioactivity is determined by scintillation measurement. All the assays are carried out in triplicate. The dissociation constant Ki of the test substance was determined from the IC50 of the compounds (concentration of the test substance at which 50% of the ligand bound to the receptor is displaced), the dissociation constant KD and the concentration L of [^3H]-methyllycaconitine using the equation Ki=IC50/(1+L/KD).

α7 nAChR, sequence (Q05941 23-502): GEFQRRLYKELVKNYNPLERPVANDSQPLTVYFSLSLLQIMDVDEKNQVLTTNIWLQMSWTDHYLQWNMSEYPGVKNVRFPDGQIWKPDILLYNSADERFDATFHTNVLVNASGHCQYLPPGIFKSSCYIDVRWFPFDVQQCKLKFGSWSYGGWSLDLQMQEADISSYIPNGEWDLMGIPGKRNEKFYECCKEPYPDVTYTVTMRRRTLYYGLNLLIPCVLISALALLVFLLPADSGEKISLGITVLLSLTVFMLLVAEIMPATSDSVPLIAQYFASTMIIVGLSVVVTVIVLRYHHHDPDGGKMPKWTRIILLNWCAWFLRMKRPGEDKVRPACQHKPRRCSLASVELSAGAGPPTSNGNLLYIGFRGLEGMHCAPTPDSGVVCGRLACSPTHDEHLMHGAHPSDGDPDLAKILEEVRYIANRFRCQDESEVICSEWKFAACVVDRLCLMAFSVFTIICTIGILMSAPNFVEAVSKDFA

Row | Compound | pKi
1 | O=C(CC1CN2CCC1CC2)Nc1cc2cccc(Br)c2s1 (stereo not shown) [Example 1, 2-(1-Azabicyclo[2.2.2]oct-3-yl)-N-(7-bromo-1-benzothien-2-yl)acetamide hydrochloride] | 6.92
2 | O=C(CC1CN2CCC1CC2)Nc1ccc2cccnc2c1 (stereo not shown) [Example 3, 2-(1-Azabicyclo[2.2.2]oct-3-yl)-N-(7-quinolinyl)acetamide hydrochloride] | 6.55
3 | O=C(CC1CN2CCC1CC2)Nc1ccc2ccccc2c1 (stereo not shown) [Example 4, 2-(1-Azabicyclo[2.2.2]oct-3-yl)-N-(2-naphthyl)acetamide hydrochloride] | 7.38
4 | O=C(CC1CN2CCC1CC2)Nc1ccc2cccc([N+](=O)[O-])c2c1 (stereo not shown) [Example 5, 2-(1-Azabicyclo[2.2.2]oct-3-yl)-N-(8-nitro-2-naphthyl)acetamide hydrochloride] | 6.77
